Patent publication US8207156B2, “Substituted pyrazoline compounds, their preparation and use as medicaments” (Laboratorios Del Dr. Esteve, S.A., priority 2005, dated 2012)
Where a name gives a salt, the structure may show the parent alone.

Target: T1, CB1 receptor (UniProt P20272)
T1 construct: other: compound at 10^−7 M; radioligand [3H]-CP55940; other: compound at 10^−8 M
Experiment: In-vitro determination of affinity to CB1/CB2-receptors (radioligand [3H]-CP55940 binding)
Conditions: for Inhibition [%], 10^−7 M: compound at 10^−7 M; for Inhibition [%], 10^−8 M: compound at 10^−8 M
Description: The in-vitro determination of the affinity of the inventive substituted pyrazoline compounds to CB1/CB2-Rezeptors is carried out as described in the publication of Ruth A. Ross, Heather C. Brockie et al., “Agonist-inverse agonist characterization at CB1 and CB2 cannabinoid receptors of L-759633, L759656 and AM630”, British Journal of Pharmacology, 126, 665-672, (1999), whereby the transfected human CB1 and CB2 receptors of Receptor Biology, Inc. are used. The radioligand used for both receptors is [^3H]-CP55940. The respective parts of the description is hereby incorporated by reference and forms part of the present disclosure.
Binding affinity to CB1 receptor was evaluated according to a modification of the method described by Govaerts et al., Eur J Pharmac Sci 23, 233-243 (2004). The respective parts of the description is hereby incorporated by reference and forms part of the present disclosure.
Briefly, cerebellum from male wistar rats (250-300 g) were carefully dissected on ice and homogenates were prepared with Potter-Helveheim in a cold 50 mM Tris-HCl solution containing 5 mM MgCl2, 1 mM EDTA and 0.25 M sucrose, pH 7.4. The suspension was centrifuged at 1,000×g for 5 minutes. The supernatants were collected and centrifuged 50,000×g for 15 minutes. The resulting pellets were then resuspended in Tris-HCl buffer without sucrose, homogenized and incubated for 15 min at 37° C. in an orbital shaker bath and centrifuged again at 50,000×g for 15 min. Pellets were weighted, resuspended in Tris-HCl buffer without sucrose, homogenized with Ultraturrax at 13,500 rpm for 3×5 seconds and alicuoted in 0.9 ml volumes in Eppendorf tubes. Alicuotes were centrifuged at 20,800×g for 5 minutes, supernatants discarded and pellets were frozen at −80° C. until use. Total protein concentration was determined using the Bio-Rad Lowry method based kit. Competitive binding experiments were performed in presence of 1 nM [^3H]-CP 55,940 in siliconized glass tubes containing 100 μg protein/tube resuspended in 1 ml final volume of 50 mM Tris-HCl, 5 mM MgCl2, 1 mM EDTA, 0.5% (w/v) bovine serum albumin, pH 7.4. Compounds were present at various concentrations and the non specific binding was determined in the presence of 10 μM HU-210. After 1 hour incubation at 30° C., the suspension was rapidly filtered through 0.5% PEI pre-treated GF/B fiber filters on a 96-well harvester and washed 3 times with 3 ml ice-cold binding buffer without bovine serum albumin. Radioactivity on filters was measured with Wallac Winspectral 1414 counter by liquid scintillation in 6 ml Ecoscint H (National Diagnostics, U.K.). Assays were made in triplicates.
Binding data were analyzed by non-linear regression with the software GraphPad Prism Version 3.03.

SMILES	Inhibition [%], 10^−7 M [%]	Inhibition [%], 10^−8 M [%]
COC[C@H]1CCCN1NC(=O)C1=NN(c2ccc(Cl)cc2Cl)C(c2ccc(Cl)cc2)C1 (some centres unmarked) [Example 13, 5-(4-Chloro-phenyl)-1-(2,4-dichloro-phenyl)-4,5-dihydro-1H-pyrazole-3-carboxylic acid (2-methoxymethyl-pyrrolidin-1-yl)-amide]	31.8	14.3
CCCCNC(=O)C1=NN(c2ccc(Cl)cc2Cl)C(c2ccc(Cl)cc2)C1 (centres unmarked) [Example 72, 5-(4-Chloro-phenyl)-1-(2,4-dichloro-phenyl)-4,5-dihydro-1H-pyrazole-3-carboxylic acid butylamide]	19.6	−10.2
CN(C)CCCNC(=O)C1=NN(c2ccc(Cl)cc2Cl)C(c2ccc(Cl)cc2)C1 (centres unmarked) [Example 73, 5-(4-Chloro-phenyl)-1-(2,4-dichloro-phenyl)-4,5-dihydro-1H-pyrazole-3-carboxylic acid (3-dimethylamino-propyl)-amide]	−18.9	15.7
O=C(NCCC1CCCC1)C1=NN(c2ccc(Cl)cc2Cl)C(c2ccc(Cl)cc2)C1 (centres unmarked) [Example 87, 5-(4-Chloro-phenyl)-1-(2,4-dichloro-phenyl)-4,5-dihydro-1H-pyrazole-3-carboxylic acid (2-cyclopentyl-ethyl)-amide]	15.2	−2.4
COc1ccc(C2CC(C(=O)O)=NN2c2ccc(Cl)cc2Cl)cc1 (centres unmarked) [Example 127, 1-(2,4-Dichloro-phenyl)-5-(4-methoxy-phenyl)-4,5-dihydro-1H-pyrazole-3-carboxylic acid]	7.8	7.4
COc1ccc(C2CC(C(=O)NC3CCCCCC3)=NN2c2ccc(Cl)cc2Cl)cc1 (centres unmarked) [Example 132, 5-(4-methoxyphenyl)-1-(2,4-dichloro-phenyl)-4,5-dihydro-1H-pyrazole-3-carboxylic acid cycloheptylamide]	37.8	18.2
Cl.O=C(NN1CCCCCCC1)C1=NN(c2ccc(Cl)cc2Cl)C(c2ccc(Cl)cc2)C1 (centres unmarked) [Example 145, 5-(4-Chloro-phenyl)-1-(2,4-dichloro-phenyl)-4,5-dihydro-1H-pyrazole-3-carboxylic acid azocan-1-ylamide hydrochloride]	57.6	12.3
COc1ccc(C2CC(C(=O)NN3CCCCCCC3)=NN2c2ccc(Cl)cc2Cl)cc1 (centres unmarked) [Example 148, 5-(4-methoxy-phenyl)-1-(2,4-dichloro-phenyl)-4,5-dihydro-1H-pyrazole-3-carboxylic acid azocan-1-ylamide]	80.3	56.1
Cl.O=C(NN1CCCCC1)C1=NN(c2ccc(Cl)cc2Cl)C(c2ccc(O)cc2)C1 (centres unmarked) [Example 172, 1-(2,4-Dichloro-phenyl)-5-(4-hydroxy-phenyl)-4,5-dihydro-1H-pyrazole-3-carboxylic acid piperidin-1-ylamide hydrochloride]	1.4	5.6
Cl.O=C(NN1CCCCCCC1)C1=NN(c2ccc(Cl)cc2Cl)[C@@H](c2ccc(Cl)cc2)C1 [Example 176, (R)-5-(4-Chloro-phenyl)-1-(2,4-dichloro-phenyl)-4,5-dihydro-1H-pyrazole-3-carboxylic acid azocan-1-ylamide hydrochloride]	71.3	29.5
Cl.O=C(NN1CCCCCCC1)C1=NN(c2ccc(Cl)cc2Cl)[C@H](c2ccc(Cl)cc2)C1 [Example 177, (S)-5-(4-Chloro-phenyl)-1-(2,4-dichloro-phenyl)-4,5-dihydro-1H-pyrazole-3-carboxylic acid azocan-1-ylamide hydrochloride]	22.2	−5.4
Cl.O=C(NN1CCc2ccccc21)C1=NN(c2ccc(Cl)cc2Cl)C(c2ccc(F)cc2)C1 (centres unmarked) [Example 179, 1-(2,4-Dichloro-phenyl)-5-(4-fluoro-phenyl)-4,5-dihydro-1H-pyrazole-3-carboxylic acid (2,3-dihydro-indol-1-yl)-amide hydrochloride]	33.9	11.5
O=C(O)C1=NN(c2ccc(Cl)cc2Cl)C(c2ccc(O)cc2)C1 (centres unmarked) [Example 180, 1-(2,4-Dichloro-phenyl)-5-(4-hydroxy-phenyl)-4,5-dihydro-1H-pyrazole-3-carboxylic acid]	9.3	4.7
Cl.O=C(NN1CCc2ccccc21)C1=NN(c2ccc(Cl)cc2Cl)[C@H](c2ccc(Cl)cc2)C1 [Example 182, (S)-5-(4-Chloro-phenyl)-1-(2,4-dichloro-phenyl)-4,5-dihydro-1H-pyrazole-3-carboxylic acid (2,3-dihydro-indol-1-yl)-amide hydrochloride]	31.7	18.8
Cl.O=C(NN1CCCCCC1)C1=NN(c2ccc(Cl)cc2Cl)[C@H](c2ccc(Cl)cc2)C1 [Example 183, (S)-5-(4-Chloro-phenyl)-1-(2,4-dichloro-phenyl)-4,5-dihydro-1H-pyrazole-3-carboxylic acid azepan-1-ylamide hydrochloride]	31.9	3.2
O=C(NN1CC2CCCC2C1)C1=NN(c2ccc(Cl)cc2Cl)[C@H](c2ccc(Cl)cc2)C1 (stereo partly drawn) [Example 184, (S)-5-(4-Chloro-phenyl)-1-(2,4-dichloro-phenyl)-4,5-dihydro-1H-pyrazole-3-carboxylic acid (hexahydro-cyclopenta[c]pyrrol-2-yl)-amide hydrochloride]	24.8	5.7
O=C(NN1CCCCCC1)C1=NN(c2ccc(Cl)cc2Cl)[C@H](c2ccc(Cl)cc2)C1 [Example 185, (S)-5-(4-Chloro-phenyl)-1-(2,4-dichloro-phenyl)-4,5-dihydro-1H-pyrazole-3-carboxylic acid azepan-1-ylamide]	34.1	−11.6
O=C(NC1CCCCCC1)C1=NN(c2ccc(Cl)cc2Cl)[C@H](c2ccc(Cl)cc2)C1 [Example 186, (S)-5-(4-Chloro-phenyl)-1-(2,4-dichloro-phenyl)-4,5-dihydro-1H-pyrazole-3-carboxylic acid cycloheptylamide]	28.1	3.2
CN1CCN(C(=O)C2=NN(c3ccc(Cl)cc3Cl)C(c3ccc(Cl)cc3)C2)CC1.Cl (centres unmarked) [Example 195, [5-(4-Chloro-phenyl)-1-(2,4-dichloro-phenyl)-4,5-dihydro-1H-pyrazole-3-yl]-(4-methyl-piperazin-1-yl)-methanone hydrochloride]	5.8	4.7
